Structures can show the parent of a compound that is named as a salt.
Test system: CGAS
Assay: CGAS whole blood cytokine release assay (384-well, BacMam stimulation, IP-10 by cytometric bead array)
Type: cell-based
Details: Homo sapiens, 6 h; read-out: hWB pXC50 (converted)
Method: Blood collection: Blood was collected in a tube containing 10% Sodium Heparin (5 ml/45 ml blood final).
Protocol for CGAS Whole Blood Cytokine Release Assay: Compounds serial diluted at 1:3 were provided at 150 nL per well, in a 384 well polypropylene microplate (cat. 781280; Greiner Bio-One, Frickenhausen, Germany). 5 μL of PBS/20% Null BacMam was dispensed to all wells except for column 18 on a Multidrop Combi (Thermo Scientific, Waltham, MA). 5 uL of PBS was dispensed into column 18. The Bravo (Agilent, Santa Clara, CA) was used to transfer 45 uL of donor derived blood into the compound plates. The Bravo protocol mixed the blood and compound/PBS 5 times. The plates were incubated at 37° C., 5% CO2, for 6 hours. At the 6 hour mark the plates were removed and centrifuged for 10 minutes at 3000 RPM. 3 uL of supernatant was transferred from the plate to a 384 well NBS microplate (cat. 4513; Corning Life Sciences, Corning, NY). These plates were sealed with adhesive foil and stored in a −80 freezer until ready for analysis.
For cytokine detection, Human IP-10 BD cytometric bead array (CBA) beads (BD Biosciences, Franklin Lakes, NJ) were used. Capture bead solution was prepared by performing a 1:50 dilution of the IP-10 capture bead stock solution in BD diluent for serum/plasma (cat. 51-9003991 BD Biosciences, Franklin Lakes, NJ). 2 μL of this solution was added per well to the assay microplates which were then sealed with adhesive foil and incubated at room temperature for 2 h in the dark. Detection reagent was further prepared by performing a 1:50 dilution of the detection reagent stock solution. 2 μL of detection reagent was added per well and microplates were sealed with adhesive foil and incubated at room temperature in the dark for 1 h. After the 1 h incubation 3 uL of BD CBA wash buffer was added per well of the microplates. Data were acquired on an iQue Screener flow cytometer. The iQue used fluorescence detection to quantify the inhibition of IP-10 present in the sample wells. A sip time of 1 second per sample was used. The blue laser with excitation of 488 nm and emission filters 585/40 nm were used to capture the mean and median of IP-10 with the detector in logarithmic mode (FL2-H).
All data analysis was carried out in IDBS ActivityBase XE.

| Compound | IC50 |
| --- | --- |
| Cc1ccn(CCOCc2cnc3nc(-c4nc(C(F)(F)F)n[nH]4)c(-c4c[nH]cn4)n3c2)n1 [Example 148, 5-[3-(1H-imidazol-4-yl)-6-{[2-(3-methyl-1H-pyrazol-1-yl)ethoxy]methyl}imidazo[1,2-a]pyrimidin-2-yl]-3-(trifluoromethyl)-1H-1,2,4-triazole] | 3980 nM |
| COC(=O)c1ccn2c(-c3c[nH]cn3)c(-c3nc(C(F)(F)F)n[nH]3)nc2n1 [Example 100, methyl 3-(1H-imidazol-4-yl)-2-[3-(trifluoromethyl)-1H-1,2,4-triazol-5-yl]imidazo[1,2-a]pyrimidine-7-carboxylate] | 398 nM |
| CCN1Cc2cn3c(-c4cnc[nH]4)c(-c4nc(C(F)(F)F)n[nH]4)nc3nc2C(F)(F)C1 [Example 108, 11-ethyl-13,13-difluoro-6-(1H-imidazol-5-yl)-5-[3-(trifluoromethyl)-1H-1,2,4-triazol-5-yl]-2,4,7,11-tetraazatricyclo[7.4.0.0^3,^7]trideca-1,3,5,8-tetraene] | 631 nM |
| FC(F)(F)COc1ccn2c(-c3cnc[nH]3)c(-c3nc(C(F)(F)F)n[nH]3)nc2n1 [Example 12, 5-[3-(1H-imidazol-5-yl)-7-(2,2,2-trifluoroethoxy)imidazo[1,2-a]pyrimidin-2-yl]-3-(trifluoromethyl)-1H-1,2,4-triazole] | 6310 nM |
| Fc1cnc2nc(-c3nc(Br)n[nH]3)c(-c3c[nH]cn3)n2c1 [Example 159, 3-bromo-5-[6-fluoro-3-(1H-imidazol-4-yl)imidazo[1,2-a]pyrimidin-2-yl]-1H-1,2,4-triazole] | 200 nM |
| O=C(COCc1cnc2nc(-c3nc(C(F)(F)F)n[nH]3)c(-c3c[nH]cn3)n2c1)N1CCCCC1 [Example 152, 2-{[3-(1H-imidazol-4-yl)-2-[3-(trifluoromethyl)-1H-1,2,4-triazol-5-yl]imidazo[1,2-a]pyrimidin-6-yl]methoxy}-1-(piperidin-1-yl)ethan-1-one] | 2510 nM |
| FC(F)(F)c1cnc2nc(-c3nc(C(F)(F)F)n[nH]3)c(-c3cnc[nH]3)n2c1 [Example 64, 5-[3-(1H-imidazol-5-yl)-6-(trifluoromethyl)imidazo[1,2-a]pyrimidin-2-yl]-3-(trifluoromethyl)-1H-1,2,4-triazole] | 398 nM |
| CS(=O)(=O)N1Cc2cn3c(-c4cnc[nH]4)c(-c4nc(C(F)(F)F)n[nH]4)nc3nc2C1 [Example 67, 12-(1H-imidazol-5-yl)-5-methanesulfonyl-11-[3-(trifluoromethyl)-1H-1,2,4-triazol-5-yl]-1,5,8,10-tetraazatricyclo[7.3.0.0^3,^7]dodeca-2,7,9,11-tetraene] | 2510 nM |
| CCOCc1cn2c(-c3cnc[nH]3)c(-c3nc(C(F)(F)F)n[nH]3)nc2nc1C(F)(F)F [Example 115, 5-[6-(ethoxymethyl)-3-(1H-imidazol-5-yl)-7-(trifluoromethyl)imidazo[1,2-a]pyrimidin-2-yl]-3-(trifluoromethyl)-1H-1,2,4-triazole] | 1580 nM |
| OCc1ccn2c(-c3cnc[nH]3)c(-c3nc(C(F)(F)F)n[nH]3)nc2n1 [Example 9, [3-(1H-imidazol-5-yl)-2-[3-(trifluoromethyl)-1H-1,2,4-triazol-5-yl]imidazo[1,2-a]pyrimidin-7-yl]methanol, 0.3 trifluoroacetic acid salt] | 100 nM |
| CCCOCCOCc1cnc2nc(-c3nc(C(F)(F)F)n[nH]3)c(-c3c[nH]cn3)n2c1 [Example 153, 5-[3-(1H-imidazol-4-yl)-6-[(2-propoxyethoxy)methyl]imidazo[1,2-a]pyrimidin-2-yl]-3-(trifluoromethyl)-1H-1,2,4-triazole] | 794 nM |
| FC(F)(F)c1n[nH]c(-c2nc3ncc(C4(C(F)(F)F)CC4)cn3c2-c2cnc[nH]2)n1 [Example 144, 5-[3-(1H-imidazol-5-yl)-6-[1-(trifluoromethyl)cyclopropyl]imidazo[1,2-a]pyrimidin-2-yl]-3-(trifluoromethyl)-1H-1,2,4-triazole] | 794 nM |
| CC1(C)Cc2nc3nc(-c4nc(C(F)(F)F)n[nH]4)c(-c4c[nH]cn4)n3cc2CO1 [Example 137, 6-(1H-imidazol-4-yl)-12,12-dimethyl-5-[3-(trifluoromethyl)-1H-1,2,4-triazol-5-yl]-11-oxa-2,4,7-triazatricyclo[7.4.0.0^3,^7]trideca-1,3,5,8-tetraene] | 631 nM |
| CC(=O)n1cnc(-c2c(-c3nc(C(F)(F)F)n[nH]3)nc3ncccn23)c1 [Example 62, 1-(4-{2-[3-(trifluoromethyl)-1H-1,2,4-triazol-5-yl]imidazo[1,2-a]pyrimidin-3-yl}-1H-imidazol-1-yl)ethan-1-one] | 126 nM |
| FC(F)COCc1cnc2nc(-c3nc(C(F)(F)F)n[nH]3)c(-c3cnc[nH]3)n2c1 [Example 101, 5-{6-[(2,2-difluoroethoxy)methyl]-3-(1H-imidazol-5-yl)imidazo[1,2-a]pyrimidin-2-yl}-3-(trifluoromethyl)-1H-1,2,4-triazole] | 126 nM |
| O=C(COCc1cnc2nc(-c3nc(C(F)(F)F)n[nH]3)c(-c3c[nH]cn3)n2c1)N1CCCC1 [Example 147, 2-{[3-(1H-imidazol-4-yl)-2-[3-(trifluoromethyl)-1H-1,2,4-triazol-5-yl]imidazo[1,2-a]pyrimidin-6-yl]methoxy}-1-(pyrrolidin-1-yl)ethan-1-one] | 5010 nM |
| CNCCOC(=O)OCn1cnc(-c2c(-c3nc(C(F)(F)F)n[nH]3)nc3ncccn23)c1 [Example 26, 2-(methylamino)ethyl (4-{2-[3-(trifluoromethyl)-1H-1,2,4-triazol-5-yl]imidazo[1,2-a]pyrimidin-3-yl}-1H-imidazol-1-yl)methyl carbonate, 2 trifluoroacetic acid salt] | 39.8 nM |
| CCOCc1cnc2nc(-c3nc(C(F)F)n[nH]3)c(-c3cnc[nH]3)n2c1 [Example 85, 3-(difluoromethyl)-5-[6-(ethoxymethyl)-3-(1H-imidazol-5-yl)imidazo[1,2-a]pyrimidin-2-yl]-1H-1,2,4-triazole] | 50.1 nM |
| FC(F)Oc1n[nH]c(-c2nc3ncccn3c2-c2cnc[nH]2)n1 [Example 113, 3-(difluoromethoxy)-5-[3-(1H-imidazol-5-yl)imidazo[1,2-a]pyrimidin-2-yl]-1H-1,2,4-triazole] | 1000 nM |
| FC(F)(F)c1n[nH]c(-c2nc3ncc(COC4CCOCC4)cn3c2-c2c[nH]cn2)n1 [Example 65, 5-[3-(1H-imidazol-4-yl)-6-[(oxan-4-yloxy)methyl]imidazo[1,2-a]pyrimidin-2-yl]-3-(trifluoromethyl)-1H-1,2,4-triazole] | 501 nM |
| FC(F)(F)c1n[nH]c(-c2nc3ncc(CC4CCCC4)cn3c2-c2cnc[nH]2)n1 [Example 17, 5-[6-(cyclopentylmethyl)-3-(1H-imidazol-5-yl)imidazo[1,2-a]pyrimidin-2-yl]-3-(trifluoromethyl)-1H-1,2,4-triazole, trifluoroacetic acid salt] | 1260 nM |
| O=C(O)CCOC(=O)OCn1cnc(-c2c(-c3nc(C(F)(F)F)n[nH]3)nc3ncccn23)c1 [Example 32, 3-({[(4-{2-[3-(trifluoromethyl)-1H-1,2,4-triazol-5-yl]imidazo[1,2-a]pyrimidin-3-yl}-1H-imidazol-1-yl)methoxy]carbonyl}oxy)propanoic acid, 0.5 trifluoroacetic acid salt] | 3160 nM |
| FC(F)(F)c1ccn2c(-c3cnc[nH]3)c(-c3nc(Br)n[nH]3)nc2n1 [Example 91, 3-bromo-5-[3-(1H-imidazol-5-yl)-7-(trifluoromethyl)imidazo[1,2-a]pyrimidin-2-yl]-1H-1,2,4-triazole] | 1000 nM |

— patent publication US12247033B2, “Triazole-substituted imidazo[1,2-a]pyrimidines as cGAS inhibitors” (GlaxoSmithKline Intellectual Property Development Limited, priority 2022, dated 2025)
